The source of these data is article PMC8316815, “Overexpression of ABCG2 Confers Resistance to MLN7243, a Ubiquitin-Activating Enzyme (UAE) Inhibitor” (Frontiers in Cell and Developmental Biology, 2021).

Data set [1] deals with T1, ABCG2 (Homo sapiens, UniProt Q9UNQ0).
T1 sequence (Q9UNQ0 1-655): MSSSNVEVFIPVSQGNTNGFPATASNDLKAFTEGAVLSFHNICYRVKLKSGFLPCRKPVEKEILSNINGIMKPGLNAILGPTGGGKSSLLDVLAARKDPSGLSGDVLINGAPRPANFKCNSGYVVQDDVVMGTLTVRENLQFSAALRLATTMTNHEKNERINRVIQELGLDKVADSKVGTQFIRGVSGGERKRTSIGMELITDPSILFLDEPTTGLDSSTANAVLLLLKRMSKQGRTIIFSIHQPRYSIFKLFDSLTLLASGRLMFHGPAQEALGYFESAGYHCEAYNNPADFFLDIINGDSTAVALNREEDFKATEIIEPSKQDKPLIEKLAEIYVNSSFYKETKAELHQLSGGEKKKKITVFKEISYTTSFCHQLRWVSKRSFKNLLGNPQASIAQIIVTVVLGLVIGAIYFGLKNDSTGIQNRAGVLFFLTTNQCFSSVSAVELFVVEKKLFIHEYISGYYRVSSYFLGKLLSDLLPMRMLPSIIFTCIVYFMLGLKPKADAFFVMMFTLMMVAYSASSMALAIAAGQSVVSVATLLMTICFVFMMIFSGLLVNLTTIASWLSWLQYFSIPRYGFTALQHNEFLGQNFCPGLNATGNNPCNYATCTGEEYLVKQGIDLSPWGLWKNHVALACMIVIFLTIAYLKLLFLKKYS
Nature of the data set: ABCG2 ATPase stimulation in membrane vesicles; supported by HPLC accumulation in HEK293/ABCG2-WT cells. Set-up: ABCG2 membrane vesicles (PREDEASY ATPase Kit). The class given is biochemical.

Data set [2] deals with T1, ABCG2. The data set can be described thus: [3H]-mitoxantrone accumulation in NCI-H460 and NCI-H460/TPT10 cells, restored by Ko143. More on the design: ABCG2-overexpressing NCI-H460/TPT10 cells. Type of data set: cell-based.

In the case of `NS(=O)(=O)OC[C@H]1C[C@@H](Nc2ccnc3cc(-c4cccc(SC(F)(F)F)c4)nn23)[C@H](O)[C@@H]1O` [MLN7243], at ABCG2 [1], the EC50 (commonly the concentration at which the effect is half-maximal) is 1.78 µM. As to `O=C1c2c(O)ccc(O)c2C(=O)c2c(NCCNCCO)ccc(NCCNCCO)c21` [mitoxantrone], at ABCG2 [2], the “[3H]-mitoxantrone accumulation in NCI-H460 and NCI-H460/TPT10 cells, restored by” value is given as “suggesting a large portion of mitoxantrone was pumped out from the cells by ABCG2 transporter”.
